Source: US20090317452A1, “Transdermal patch” (Sekisui Chemical Co. td., priority 2006, published 2009)

Tests used:
Format in all cases: physicochemical
[1] = Solvency of the active substance in monomers (visual inspection); design: key: Excellent: The active substance was not found to have been precipitated in the solution of active substance both immediately after the preparation and after the preservation for 7 days.; Good: The active substance was found to have been precipitated in the solution of active substance immediately after the preparation, but the active substance was not found to have been precipitated in the solution of active substance after the preservation for 7 days.; Poor: The active substance was found to have been precipitated in the solution of active substance both immediately after the preparation and after the preservation for 7 days; settings: 25° C., 7 days
[2] = Residual rate of the active substance in monomer solution (HPLC); settings: for Residual Rate (% by weight) after 7 Days: 25° C.
[3] = Solvency of DMAE in alcohol/additive; settings: 25° C.
Description: When a crystal of DMAE was precipitated […], and when a crystal of DMAE was not precipitated, the solvency was evaluated to be “poor”.

[4] = Solubility of DMAE at 25° C. in alcohol/additive
Excerpt: When the content of the saturated aliphatic monohydric alcohol is small in the plaster layer described above, the solvency and diffusibility of the DMAEs in the plaster layer decrease, and the transdermal absorbency of the DMAEs becomes insufficient. When the content of the saturated aliphatic monohydric alcohol is large in the plaster layer, the acrylic adhesive in the plaster layer becomes excessively plasticized, leading to an adhesive transfer when the transdermal patch is removed away from the skin. Therefore, the content of the saturated aliphatic monohydric alcohol in the plaster layer is limited to 1 to 30% by weight, and preferably 5 to 30%.
An excess amount of DMAEs is added to the saturated aliphatic monohydric alcohol, a weight W0 (g) of the alcohol being measured in advance; a solution temperature is set at 50° C. to keep the warmth for one hour or more than one hour; and then a shaking operation is continued in a water bath of 25° C. for 10 minutes by means of supersonic waves to prepare a DMAEs saturated solution. Next, the DMAEs saturated solution, after being arranged to stand still for 24 hours at 25° C., is centrifuged at a speed of 3000 r.p.m., and a certain amount of clear supernatant solution of the DMAEs saturated solution is collected. Then, such collected clear supernatant solution is subjected to HPLC determination to determine a weight W1 (g) of the DMAEs dissolved in the DMAEs saturated solution, and solubility of the DMAEs with respect to the saturated aliphatic monohydric alcohol is figured out by using the following equation (1).
Solubility of DMAEs (g)=(W1/W0)×100 Equation (1)

## COc1ccc(OC)c(C(O)CN)c1 (stereo not shown) [DMAE, 2-amino-1-(2′,5′-dimethoxyphenyl)ethanol]
[1]; 3 parts active substance in 100 parts 1-Vinyl-2-Pyrrolidone
  Solvency of the active substance: Poor
[1]; 3 parts active substance in 100 parts 2-Ethylhexyl Acrylate
  Solvency of the active substance: Poor
[1]; 3 parts active substance in 100 parts 2-Ethylhexyl Methacrylate
  Solvency of the active substance: Poor
[1]; 3 parts active substance in 100 parts Acrylic Acid
  Solvency of the active substance: Excellent
[1]; 3 parts active substance in 100 parts Butyl Acrylate
  Solvency of the active substance: Good
[1]; 3 parts active substance in 100 parts Butyl Methacrylate
  Solvency of the active substance: Poor
[1]; 3 parts active substance in 100 parts Dodecyl Methacrylate
  Solvency of the active substance: Poor
[1]; 3 parts active substance in 100 parts Ethyl Acrylate
  Solvency of the active substance: Excellent
[2]; in 1-Vinyl-2-Pyrrolidone
  Residual Rate (% by weight) Immediately after Preparation: 100 % by weight
  Residual Rate (% by weight) after 7 Days: 100 % by weight
[2]; in 2-Ethylhexyl Acrylate
  Residual Rate (% by weight) Immediately after Preparation: 39 % by weight
  Residual Rate (% by weight) after 7 Days: 11 % by weight
[2]; in 2-Ethylhexyl Methacrylate
  Residual Rate (% by weight) Immediately after Preparation: 99 % by weight
  Residual Rate (% by weight) after 7 Days: 99 % by weight
[2]; in Acrylic Acid
  Residual Rate (% by weight) Immediately after Preparation: 99 % by weight
  Residual Rate (% by weight) after 7 Days: 97 % by weight
[2]; in Butyl Acrylate
  Residual Rate (% by weight) Immediately after Preparation: 27 % by weight
[2]; in Butyl Methacrylate
  Residual Rate (% by weight) Immediately after Preparation: 98 % by weight
  Residual Rate (% by weight) after 7 Days: 98 % by weight
[2]; in Dodecyl Methacrylate
  Residual Rate (% by weight) Immediately after Preparation: 100 % by weight
  Residual Rate (% by weight) after 7 Days: 99 % by weight
[3]; 50 parts DMAE in 950 parts Butylene Glycol
  Solvency of DMAE: Poor
[3]; 50 parts DMAE in 950 parts Diethyl Sebacate
  Solvency of DMAE: Excellent
[3]; 50 parts DMAE in 950 parts Hexyldecanol
  Solvency of DMAE: Excellent
[3]; 50 parts DMAE in 950 parts Isostearic Acid
  Solvency of DMAE: Poor
[3]; 50 parts DMAE in 950 parts Isostearyl Alcohol
  Solvency of DMAE: Excellent
[3]; 50 parts DMAE in 950 parts Lauryl Alcohol
  Solvency of DMAE: Excellent
[3]; 50 parts DMAE in 950 parts Liquid Paraffin
  Solvency of DMAE: Excellent
[3]; 50 parts DMAE in 950 parts Medium-chain Triglyceride
  Solvency of DMAE: Excellent
[3]; 50 parts DMAE in 950 parts Monoethanolamine
  Solvency of DMAE: Poor
[3]; 50 parts DMAE in 950 parts Octanediol
  Solvency of DMAE: Poor
[3]; 50 parts DMAE in 950 parts Octyldodecanol
  Solvency of DMAE: Excellent
[3]; 50 parts DMAE in 950 parts Oleic Acid
  Solvency of DMAE: Excellent
[3]; 50 parts DMAE in 950 parts Oleyl Alcohol
  Solvency of DMAE: Excellent
[3]; 50 parts DMAE in 950 parts Polyoxyethylene (2) Lauryl Ether
  Solvency of DMAE: Excellent
[3]; 50 parts DMAE in 950 parts Propylene Glycol
  Solvency of DMAE: Poor
[3]; 50 parts DMAE in 950 parts Squalane
  Solvency of DMAE: Excellent
[3]; 50 parts DMAE in 950 parts Triacetin
  Solvency of DMAE: Poor
[4]; g DMAE per 100 g Diethyl Sebacate at 25° C.
  Solubility of DMAE: 0.87 g
[4]; g DMAE per 100 g Hexyldecanol at 25° C.
  Solubility of DMAE: 1.4 g
[4]; g DMAE per 100 g Isostearyl Alcohol at 25° C.
  Solubility of DMAE: 1.8 g
[4]; g DMAE per 100 g Lauryl Alcohol at 25° C.
  Solubility of DMAE: 2.6 g
[4]; g DMAE per 100 g Liquid Paraffin at 25° C.
  Solubility of DMAE: 0.02 g
[4]; g DMAE per 100 g Medium-chain Triglyceride at 25° C.
  Solubility of DMAE: 0.31 g
[4]; g DMAE per 100 g Octyldodecanol at 25° C.
  Solubility of DMAE: 0.84 g
[4]; g DMAE per 100 g Oleic Acid at 25° C.
  Solubility of DMAE: 3.7 g
[4]; g DMAE per 100 g Oleyl Alcohol at 25° C.
  Solubility of DMAE: 2.5 g
[4]; g DMAE per 100 g Polyoxyethylene (2) Lauryl Ether at 25° C.
  Solubility of DMAE: 3.7 g
[4]; g DMAE per 100 g Squalane at 25° C.
  Solubility of DMAE: 0.01 g
